# Columns and labels:
# [1] = biological target: T1, KRas (Homo sapiens, UniProt P01116, G12C); experiment: KRas degradation in SW1573 cells by Western blot, normalized to GAPDH (data of Table 14); assay type: cell-based; conditions: SW1573 cells
# Method: Cell Lines, Antibodies, and Reagents. NCI-H2030 (CRL-5914) and SW1573 (CRL-2170) cells were purchased from ATCC. Both cell lines are homozygous for the G12C mutation in KRas. NCI-H2030 cells were cultured in RPMI-1640 medium containing 1% penicillin-streptomycin and 10% fetal bovine serum (FBS). SW1573 cells were cultured in DMEM containing 1% penicillin-streptomycin and 10% FBS. The KRas detection antibody (Cat. No. LS-C175665) was purchased from LifeSpan Biosciences and was used at a dilution of 1:2000. GAPDH was detected using an antibody purchased from Cell Signaling Technology (Cat. No. 5174) and was diluted 1:3000. Secondary anti-mouse and anti-rabbit detection antibodies were purchased from Cell Signaling Technology (Cat. Nos. 7076 and 7074, respectively).
# Compound Treatment and Western Blotting of the Data of Table 14. Either NCI-H2030 or SW1573 cells were plated in 12-well plates and allowed to adhere overnight at 37° C. in an incubator containing 5% CO2. The following day, the medium was replaced with the appropriate medium lacking FBS to induce starvation. Cells were returned to the incubator for an additional 24 hours following media exchange. […] Cells were treated with VHL-based compounds for 24 hours and all other compounds for 72 hours. Following treatment, cells were lysed in RIPA buffer (Thermo Fisher Cat. No. 89900) containing phosphatase (Thermo Fisher Cat. No. 1861277) and protease (Thermo Fisher Cat. No. 78429) inhibitor cocktails. Lysates were cleared at 13,000 rpm for 15 minutes and supernatants were assayed for total protein concentration using the Pierce BCA assay system (Thermo Fisher Cat. No. 23225). For each sample, 10 μg total protein was resolved on a 12% Bis-Tris gel and then transferred to a nitrocellulose membrane. After blocking in 3% BSA in TBST (Tris-buffered Saline with 0.1% Tween-20) for 1 hour at room temperature, membranes were probed with the primary antibody (LS Bio Cat. No. LS-C175665) overnight at 4° C. After incubation with the secondary antibody, the following day membranes were visualized using the SuperSignal™ West Femto substrate (Thermo Fisher Cat. No. 34095). The KRas signal in each lane was normalized to GAPDH and percent degradation was either estimated as less than 25% by visual inspection (C in Table 13) or quantitated relative to the DMSO control lane using BIO-RAD Image Lab 5.2.1, and all data was plotted using GraphPad PRISM 6.07.
# DC50 is the half-maximal degradation concentration—i.e., the concentration at which 50% degradation is observed. DMax is the maximum degradation efficacy is achieved—i.e., the maximal degradation observed) degradation data.
# [2] = biological target: T1, KRas; experiment: KRas degradation in NCI-H2030 cells by Western blot, normalized to GAPDH (data of Table 14); assay type: cell-based; design: host or cells: NCI-H2030; conditions: for Dmax: NCI-H2030; for Percent Degradation at Indicated Concentration (μM): H2030
# Method in brief: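 Cells plated overnight, switched to FBS-free medium for 24 h, then treated (0.3, 1, 3 μM final; 0.1% DMSO) for 24 h if VHL-based, otherwise 72 h. RIPA lysates (10 μg protein) blotted for KRas, signal normalized to GAPDH and compared with DMSO.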
Compound,Percent Degradation at Indicated Concentration (μM) ([1]; 0.1 μM),Percent Degradation at Indicated Concentration (μM) ([1]; 0.3 μM),Percent Degradation at Indicated Concentration (μM) ([1]; 1 μM),"Percent Degradation at Indicated Concentration (μM): 0.3 ([2]; H2030 cells, 0.3 μM)","Percent Degradation at Indicated Concentration (μM): 1 ([2]; H2030 cells, 1 μM)","Percent Degradation at Indicated Concentration (μM): 3 ([2]; H2030 cells, 3 μM)",Dmax ([2]; H2030 cells) [%],further results
"C=CC(=O)N1CCN(c2nc(OC[C@@H]3C[C@@H](OCCOCCNc4cccc5c4C(=O)N(C4CCC(=O)NC4=O)C5=O)CN3C)nc3c2CCN(c2cccc4ccccc24)C3)C[C@@H]1CC#N (stereo partly drawn) [compound 516, 2-((2S)-1-acryloyl-4-(2-(((2S,4R)-4-(2-(2-((2-(2,6-dioxopiperidin-3-yl)-1,3-dioxoisoindolin-4-yl)amino)ethoxy)ethoxy)-1-methylpyrrolidin-2-yl)methoxy)-7-(naphthalen-1-yl)-5,6,7,8-tetrahydropyrido[3,4-d]pyrimidin-4-yl)piperazin-2-yl)acetonitrile]",C (Percent Degradation: C ≤ 35),B (35 < B < 70),B (35 < B < 70),–,–,–,–,Dmax [1]: 35 to 70%
"C=CC(=O)N1CCN(c2nc(O[C@H](C)CN3CCC(OCCOc4cc(-c5scnc5C)ccc4CNC(=O)[C@@H]4C[C@@H](O)CN4C(=O)[C@@H](c4cc(C)no4)C(C)C)CC3)nc3c2CCN(c2cc(O)cc4ccccc24)C3)CC1 [compound 436, (2S,4R)-N-(2-(2-((1-((R)-2-((4-(4-acryloylpiperazin-1-yl)-7-(3-hydroxynaphthalen-1-yl)-5,6,7,8-tetrahydropyrido[3,4-d]pyrimidin-2-yl)oxy)propyl)piperidin-4-yl)oxy)ethoxy)-4-(4-methylthiazol-5-yl)benzyl)-4-hydroxy-1-((R)-3-methyl-2-(3-methylisoxazol-5-yl)butanoyl)pyrrolidine-2-carboxamide]",C (Percent Degradation: C ≤ 35),B (35 < B < 70),B (35 < B < 70),–,–,–,–,–
"C=CC(=O)N1CCN(c2nc(O[C@H](C)CN3CCC(OCCOCCOCCOCCOc4cc(-c5scnc5C)ccc4CNC(=O)[C@@H]4C[C@@H](O)CN4C(=O)[C@H](c4cc(C)no4)C(C)C)CC3)nc3c2CCN(c2cc(O)cc4ccccc24)C3)CC1 [compound 443, (2S,4R)-N-(2-(2-(2-(2-(2-((1-((R)-2-((4-(4-acryloylpiperazin-1-yl)-7-(3-hydroxynaphthalen-1-yl)-5,6,7,8-tetrahydropyrido[3,4-d]dipyrimidin-2-yl)oxy)propyl)piperidin-4-yl)oxy)ethoxy)ethoxy)ethoxy)ethoxy)-4-(4-methylthiazol-5-yl)benzyl)-4-hydroxy-1-((S)-3-methyl-2-(3-methylisoxazol-5-yl)butanoyl)pyrrolidine-2-carboxamide]",C (Percent Degradation: C ≤ 35),C (Percent Degradation: C ≤ 35),C (Percent Degradation: C ≤ 35),–,–,–,–,–
"Cc1ncsc1-c1ccc([C@H](C)NC(=O)[C@@H]2C[C@@H](O)CN2C(=O)[C@@H](NC(=O)COCCOCCOCCOCCO[C@@H]2C[C@@H](COc3nc4c(c(N5CCN(C(N)=O)[C@@H](CC#N)C5)n3)CCN(c3cccc5ccccc35)C4)N(C)C2)C(C)(C)C)cc1 [compound 537, (S)-2-(cyanomethyl)-4-(2-(((2S,4R)-4-(((S)-16-((2S,4R)-4-hydroxy-2-(((S)-1-(4-(4-methylthiazol-5-yl)phenyl)ethyl)carbamoyl)pyrrolidine-1-carbonyl)-17,17-dimethyl-14-oxo-3,6,9,12-tetraoxa-15-azaoctadecyl)oxy)-1-methylpyrrolidin-2-yl)methoxy)-7-(naphthalen-1-yl)-5,6,7,8-tetrahydropyrido[3,4-d]pyrimidin-4-yl)piperazine-1-carboxamide]",–,C (Percent Degradation: C ≤ 35),C (Percent Degradation: C ≤ 35),–,–,–,–,Percent Degradation at Indicated Concentration (μM) ([1]; 3 μM): C (Percent Degradation: C ≤ 35)
"CCC(=O)N1CCN(c2nc(NCCC(=O)N(C)CCOc3ccc4c(c3)C(=O)N(C3CCC(=O)NC3=O)C4=O)nc3c(F)c(-c4cc(O)cc5ccccc45)c(Cl)cc23)CC1 (stereo not drawn) [compound 46, 3-((6-chloro-8-fluoro-7-(3-hydroxynaphthalen-1-yl)-4-(4-propionylpiperazin-1-yl)quinazolin-2-yl)amino)-N-(2-((2-(2,6-dioxopiperidin-3-yl)-1,3-dioxoisoindolin-5-yl)oxy)ethyl)-N-methylpropanamide]",–,–,–,C (C ≤ 35),C (C ≤ 35),C (C ≤ 35),≤ 35,–
"C=CC(=O)N1CCN(c2nc(NCCC(=O)N(C)CCOCCOCCOCCOCC(=O)N[C@H](C(=O)N3C[C@H](O)C[C@H]3C(=O)N[C@@H](C)c3ccc(-c4scnc4C)cc3)C(C)(C)C)nc3c(F)c(-c4c(O)cccc4F)c(Cl)cc23)CC1 (atropisomer, axis not shown) [compound 211, (2S,4R)-1-((S)-21-(((S)-4-(4-acryloylpiperazin-1-yl)-6-chloro-8-fluoro-7-(2-fluoro-6-hydroxyphenyl)quinazolin-2-yl)amino)-2-(tert-butyl)-18-methyl-4,19-dioxo-6,9,12,15-tetraoxa-3,18-diazahenicosanoyl)-4-hydroxy-N-((S)-1-(4-(4-methylthiazol-5-yl)phenyl)ethyl)pyrrolidine-2-carboxamide]",–,–,–,–,–,–,–,Percent Degradation at Indicated Concentration (μM) ([2]; 3 μM): C (Percent Degradation: C ≤ 35)
C=CC(=O)N1CCN(c2nc(NCCC(=O)N(C)CCOCCOc3cc(-c4scnc4C)ccc3CNC(=O)[C@@H]3C[C@@H](O)CN3C(=O)[C@@H](c3cc(C)no3)C(C)C)nc3c(F)c(-c4cc(O)cc5ccccc45)c(Cl)cc23)CC1 [compound 339],–,–,–,C (C ≤ 35),C (C ≤ 35),C (C ≤ 35),≤ 35,–
"CCC(=O)N1CCN(c2nc(NCCC(=O)N(C)CCOCCOCCOCC(=O)N[C@H](C(=O)N3C[C@H](O)C[C@H]3C(=O)N[C@@H](C)c3ccc(-c4scnc4C)cc3)C(C)(C)C)nc3c(F)c(-c4cc(O)cc5ccccc45)c(Cl)cc23)CC1 [compound 188, (2S,4R)-1-((2S)-2-(tert-butyl)-18-((6-chloro-8-fluoro-7-(3-hydroxynaphthalen-1-yl)-4-(4-propionylpiperazin-1-yl)quinazolin-2-yl)amino)-15-methyl-4,16-dioxo-6,9,12-trioxa-3,15-diazaoctadecanoyl)-4-hydroxy-N-((S)-1-(4-(4-methylthiazol-5-yl)phenyl)ethyl)pyrrolidine-2-carboxamide]",–,–,–,C (C ≤ 35),C (C ≤ 35),C (C ≤ 35),≤ 35,–
"C=CC(=O)N1CCN(c2nc(NCCC(=O)N(C)CCOCCOCCOCCOc3cc(-c4scnc4C)ccc3CNC(=O)[C@@H]3C[C@@H](O)CN3C(=O)[C@@H](c3cc(C)no3)C(C)C)nc3c(F)c(-c4cc(O)cc5ccccc45)c(Cl)cc23)CC1 [compound 343, (2S,4R)-N-(2-((15-((4-(4-acryloylpiperazin-1-yl)-6-chloro-8-fluoro-7-(3-hydroxynaphthalen-1-yl)quinazolin-2-yl)amino)-12-methyl-13-oxo-3,6,9-trioxa-12-azapentadecyl)oxy)-4-(4-methylthiazol-5-yl)benzyl)-4-hydroxy-1-((R)-3-methyl-2-(3-methylisoxazol-5-yl)butanoyl)pyrrolidine-2-carboxamide]",–,–,–,–,–,–,–,Percent Degradation at Indicated Concentration (μM) ([2]; 0.3 μM): C (Percent Degradation: C ≤ 35); Percent Degradation at Indicated Concentration (μM) ([2]; 1 μM): C (Percent Degradation: C ≤ 35); Percent Degradation at Indicated Concentration (μM) ([2]; 3 μM): C (Percent Degradation: C ≤ 35); Dmax [2]: ≤ 35%

# — US12552783B2, “Modulators of proteolysis and associated methods of use” (Arvinas Operations, Inc., priority 2018, dated 2026)
